Reference: ChEMBL document CHEMBL1127830, “A new photoaffinity analog of cGMP: potent inhibitor of cyclic nucleotide phosphodiesterase” (J Med Chem, 1994)
pIC50: −log10 of the molar value.

Tests used:
[1] = Inhibition of rat bladder dome cGMP phosphodiesterase
[2] = Inhibition of rat bladder dome cAMP phosphodiesterase
[3] = Inhibition of human platelet cAMP phosphodiesterase

NC1=NC(=O)C2N=CN([C@@H]3O[C@@H]4COP(=O)(O)O[C@H]4[C@H]3OC(=O)c3ccc(C(=O)c4ccccc4)cc3)C2=N1 (stereo partly drawn)
pIC50 [1]: 6.52 | pIC50 [2]: 4.80 | pIC50 [3]: 5.47
